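These data come from cells grown in 96-well plates and exposed to compound for 48 hours at five concentrations. Abbreviation: GI50, concentration required for 50% inhibition of growth.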 Calls of active or inactive are those of the source. Rule as the data show it: active = GI50 up to about 1.1 µM and inactive = higher.
Columns and labels:
Assay in all cases: NCI anticancer screen, dose series, 48 h
SF-268 = test system: SF-268
NCI-H226 = test system: NCI-H226
K562 = test system: K562
MDA-MB-435 = test system: MDA-MB-435
TK-10 = test system: TK-10
HCT-15 = test system: HCT-15
KM12 = test system: KM12
SW-620 = test system: SW-620
HL-60 = test system: HL-60
T47D = test system: T47D
SK-OV-3 = test system: SK-OV-3
UACC-257 = test system: UACC-257
SN12C = test system: SN12C
HT-29 = test system: HT-29
SK-MEL-5 = test system: SK-MEL-5
OVCAR-8 = test system: OVCAR-8
U-251 = test system: U-251
M14 = test system: M14
LOX IMVI = test system: LOX IMVI
HOP-92 = test system: HOP-92

Row | Compound | GI50 (SF-268) | GI50 (NCI-H226) | GI50 (K562) | GI50 (MDA-MB-435) | GI50 (TK-10) | GI50 (HCT-15) [µM] | GI50 (KM12) | GI50 (SW-620) | GI50 (HL-60) | GI50 (T47D) | GI50 (SK-OV-3) | GI50 (UACC-257) | GI50 (SN12C) | GI50 (HT-29) | GI50 (SK-MEL-5) | GI50 (OVCAR-8) | GI50 (U-251) | GI50 (M14) | GI50 (LOX IMVI) | GI50 (HOP-92)
1 | CCC1CCC2c3c([nH]c4ccccc34)C3C(=O)N(c4ccc(OC)cc4)C(=O)C3C2C1 (stereo not drawn) | 52.5 µM (inactive) | > 100 µM (inactive) | 22 µM (inactive) | 55.5 µM (inactive) | 28.2 µM (inactive) | 35.1 | 93.5 µM (inactive) | 17.7 µM (inactive) | 28.2 µM (inactive) | 16.8 µM (inactive) | 36.4 µM (inactive) | > 100 µM (inactive) | 68.9 µM (inactive) | 42.3 µM (inactive) | > 100 µM (inactive) | 27.1 µM (inactive) | 18.7 µM (inactive) | 63 µM (inactive) |  | 
2 | O=C1NC(=S)N/C1=C\c1cccs1 | > 100 µM (inactive) | > 100 µM (inactive) | > 100 µM (inactive) | > 100 µM (inactive) | > 100 µM (inactive) | > 100 | > 100 µM (inactive) | > 100 µM (inactive) |  | 73.1 µM (inactive) | > 100 µM (inactive) |  | > 100 µM (inactive) | > 100 µM (inactive) | > 100 µM (inactive) | > 100 µM (inactive) | > 100 µM (inactive) | > 100 µM (inactive) | > 100 µM (inactive) | 
3 | Clc1ccc(OCc2nnc3sc(SSc4nn5c(COc6ccc(Cl)cc6)nnc5s4)nn23)cc1 | > 100 µM (inactive) | > 100 µM (inactive) | 74.3 µM (inactive) | 92.9 µM (inactive) |  |  | > 100 µM (inactive) | > 100 µM (inactive) | > 100 µM (inactive) | 49.5 µM (inactive) | > 100 µM (inactive) | > 100 µM (inactive) | > 100 µM (inactive) | > 100 µM (inactive) | 60.8 µM (inactive) | > 100 µM (inactive) | > 100 µM (inactive) | > 100 µM (inactive) | > 100 µM (inactive) | 
4 | O=C(c1ccc(Cl)cc1)N(C(=S)N1CCN(c2ccccn2)CC1)C1CCCCC1 | 27.3 µM (inactive) | 18.2 µM (inactive) | 37.6 µM (inactive) |  | > 100 µM (inactive) | 43.8 | 68.1 µM (inactive) | 83.6 µM (inactive) | 17.3 µM (inactive) |  | > 100 µM (inactive) | 30.8 µM (inactive) | > 100 µM (inactive) | 55.3 µM (inactive) | 38.7 µM (inactive) | > 100 µM (inactive) | 37.2 µM (inactive) | > 100 µM (inactive) | 56.1 µM (inactive) | > 100 µM (inactive)
5 | COC(=O)Cc1cc(=O)oc2c1C(=O)CCC2 | > 100 µM (inactive) | > 100 µM (inactive) | > 100 µM (inactive) |  | > 100 µM (inactive) | > 100 | > 100 µM (inactive) | > 100 µM (inactive) | > 100 µM (inactive) |  | > 100 µM (inactive) | > 100 µM (inactive) | > 100 µM (inactive) | > 100 µM (inactive) | > 100 µM (inactive) | > 100 µM (inactive) | > 100 µM (inactive) | > 100 µM (inactive) | > 100 µM (inactive) | > 100 µM (inactive)
6 | O=C(NCc1ccccc1Cl)c1c(O)c2ccccc2[nH]c1=O | 72.1 µM (inactive) | 44.7 µM (inactive) | > 100 µM (inactive) | 36 µM (inactive) | 56.4 µM (inactive) | 42.8 | > 100 µM (inactive) | 24.9 µM (inactive) | > 100 µM (inactive) |  |  | > 100 µM (inactive) | > 100 µM (inactive) | 54.5 µM (inactive) | 46.8 µM (inactive) | 75 µM (inactive) | 18.7 µM (inactive) |  | > 100 µM (inactive) | 27.9 µM (inactive)
7 | CC1=C(c2ccc(C)cc2)NC(=S)C(C)C(c2ccc(C)cc2)=N1 (stereo not drawn) | > 100 µM (inactive) | > 100 µM (inactive) | 35.8 µM (inactive) | 72.9 µM (inactive) | > 100 µM (inactive) | 82.8 | 49.7 µM (inactive) | > 100 µM (inactive) | 30.3 µM (inactive) | 37.1 µM (inactive) | > 100 µM (inactive) | 51.1 µM (inactive) | > 100 µM (inactive) | 65.6 µM (inactive) | 60 µM (inactive) | > 100 µM (inactive) | > 100 µM (inactive) |  | 76.2 µM (inactive) | 
8 | O=C1c2ccccc2C(=O)c2sc(Nc3ccc([N+](=O)[O-])cc3)nc21 | 6.93 µM (inactive) | 17.2 µM (inactive) | 2.17 µM (inactive) |  | 12.2 µM (inactive) | 5.32 | 9.08 µM (inactive) | 4 µM (inactive) | 0.984 µM (active) | 2.18 µM (inactive) | 21.7 µM (inactive) | 4.9 µM (inactive) | 3.19 µM (inactive) | 23.8 µM (inactive) | 2.39 µM (inactive) | 4.66 µM (inactive) | 3.85 µM (inactive) | 2.54 µM (inactive) | 2.03 µM (inactive) | 13.8 µM (inactive)
9 | Cc1ccc2c(C)c3ccc4ccccc4c3c[n+]2c1.[O-][Cl+3]([O-])([O-])[O-] | 2.57 µM (inactive) | 5.81 µM (inactive) | 56.5 µM (inactive) |  | 53.5 µM (inactive) | 52.1 | 2.94 µM (inactive) | 10.1 µM (inactive) | 31.6 µM (inactive) |  | 17.7 µM (inactive) | 12.4 µM (inactive) | 4.68 µM (inactive) | 32.4 µM (inactive) | 12 µM (inactive) | 10 µM (inactive) | 5.02 µM (inactive) | 17.9 µM (inactive) | 34.6 µM (inactive) | 17.9 µM (inactive)
10 | CCOc1ccc2c(c1)[n+]([O-])c(-c1nc3ccccc3s1)c(N)[n+]2[O-] | 32.1 µM (inactive) | 45.4 µM (inactive) | 61.9 µM (inactive) |  | > 100 µM (inactive) | 49.5 | 60.7 µM (inactive) | 86.7 µM (inactive) | 31.2 µM (inactive) |  | > 100 µM (inactive) | 42.1 µM (inactive) | 82.6 µM (inactive) | 58.7 µM (inactive) | 30.3 µM (inactive) | 75.2 µM (inactive) | 46.7 µM (inactive) | 60.7 µM (inactive) | 64 µM (inactive) | 26.2 µM (inactive)
11 | N#Cc1ccc(/C=N/C23CC4CC(CC(C4)C2)C3)cc1 | > 100 µM (inactive) | > 100 µM (inactive) | 39.5 µM (inactive) |  | > 100 µM (inactive) | > 100 | > 100 µM (inactive) | > 100 µM (inactive) | 27 µM (inactive) |  | > 100 µM (inactive) | > 100 µM (inactive) | > 100 µM (inactive) | 63.1 µM (inactive) | > 10 µM (inactive) | > 100 µM (inactive) | > 100 µM (inactive) | > 100 µM (inactive) | 76.6 µM (inactive) | 83.9 µM (inactive)
12 | COC(=O)C(/C(=N/N)C(=O)Nc1cc(Cl)ccc1Cl)c1nc2ccc([N+](=O)[O-])cc2nc1O (stereo not drawn) | 92.3 µM (inactive) | > 100 µM (inactive) | 2.74 µM (inactive) |  | > 100 µM (inactive) | 76.4 | > 100 µM (inactive) | > 100 µM (inactive) | > 100 µM (inactive) |  | > 100 µM (inactive) | > 100 µM (inactive) | > 100 µM (inactive) | > 100 µM (inactive) | > 100 µM (inactive) | > 100 µM (inactive) | > 100 µM (inactive) | 72.3 µM (inactive) | > 100 µM (inactive) | 30.7 µM (inactive)
13 | O=C(CN1CCN(c2ccccc2)CC1)c1ccc2[nH]c(=O)oc2c1 | > 100 µM (inactive) | > 100 µM (inactive) | > 100 µM (inactive) | > 100 µM (inactive) | > 100 µM (inactive) | > 100 | > 100 µM (inactive) | > 100 µM (inactive) | > 100 µM (inactive) |  | > 100 µM (inactive) | > 100 µM (inactive) | > 100 µM (inactive) | > 100 µM (inactive) |  | > 100 µM (inactive) | 35.6 µM (inactive) | > 100 µM (inactive) | > 100 µM (inactive) | 
14 | CC(=O)OCC1OC(Nc2ccc3nc(C)n(-c4ccccc4)c(=O)c3c2)C(OC(C)=O)C(OC(C)=O)C1OC(C)=O (stereo not drawn) | > 50 µM (inactive) | > 50 µM (inactive) | 32.1 µM (inactive) | > 50 µM (inactive) | > 50 µM (inactive) | > 50 | > 50 µM (inactive) | > 50 µM (inactive) | 23.7 µM (inactive) | > 50 µM (inactive) |  | > 50 µM (inactive) | > 50 µM (inactive) | > 50 µM (inactive) | > 50 µM (inactive) | > 50 µM (inactive) | > 50 µM (inactive) |  | 42.8 µM (inactive) | 
15 | CC(C)(C)c1cc(C(P(=O)(O)O)P(=O)(O)O)cc(C(C)(C)C)c1O | > 100 µM (inactive) | > 100 µM (inactive) | > 100 µM (inactive) |  | > 100 µM (inactive) | > 100 | > 100 µM (inactive) | > 100 µM (inactive) | > 100 µM (inactive) |  | > 100 µM (inactive) | > 100 µM (inactive) |  | > 100 µM (inactive) | > 100 µM (inactive) | > 100 µM (inactive) | > 100 µM (inactive) | > 100 µM (inactive) | > 100 µM (inactive) | > 100 µM (inactive)
16 | COc1ccc2c(c1)N=C(N)n1c(nc3ccccc31)S2 | 19.5 µM (inactive) | 45.8 µM (inactive) | 10.9 µM (inactive) |  | > 100 µM (inactive) | 25.1 | 15.5 µM (inactive) | 39.9 µM (inactive) | 3.79 µM (inactive) | 15.2 µM (inactive) | 30.5 µM (inactive) | 11.8 µM (inactive) | 51.6 µM (inactive) | 3.96 µM (inactive) | 7.29 µM (inactive) |  | 6.27 µM (inactive) | 4.01 µM (inactive) | 15.9 µM (inactive) | 11.7 µM (inactive)

Source: ChEMBL document CHEMBL1201862, “PubChem BioAssay data set” (2004)
